System: DU-145
Test: Anticancer activity against human DU145 cells after 72 hrs by MTT assay
Assay type: functional

| SMILES | GI |
| --- | --- |
| Nc1ccccc1NC(=O)c1ccc(CNC(=O)OCc2cccnc2)cc1 [ENTINOSTAT] | 7.9 µM |
| Cc1ccc(S(=O)(=O)NCC(=O)c2ccc(C(=O)Nc3ccccc3N)cc2)cc1 | 37.7 µM |
| Nc1ccc(S(=O)(=O)NCC(=O)c2ccc(C(=O)Nc3ccccc3N)cc2)cc1 | 0.16 µM |

System: MDA-MB-231
Test: Anticancer activity against human MDA-MB-231 cells after 72 hrs by MTT assay
Assay type: functional

| SMILES | GI |
| --- | --- |
| Nc1ccccc1NC(=O)c1ccc(CNC(=O)OCc2cccnc2)cc1 [ENTINOSTAT] | 2.8 µM |
| Cc1ccc(S(=O)(=O)NCC(=O)c2ccc(C(=O)Nc3ccccc3N)cc2)cc1 | 18.4 µM |

System: not listed separately
Test: Inhibition of HDAC by fluorescence assay

| SMILES | IC50 |
| --- | --- |
| Nc1ccccc1NC(=O)c1ccc(C(=O)CNC(=O)c2ccccc2)cc1 | > 100 µM |
| Nc1ccc(C(=O)NCC(=O)c2ccc(C(=O)Nc3ccccc3N)cc2)cc1 | 50.2 µM |
| Nc1cc(C(=O)NCC(=O)c2ccc(C(=O)Nc3ccccc3N)cc2)ccn1 | 42.6 µM |
| Nc1cccc(C(=O)NCC(=O)c2ccc(C(=O)Nc3ccccc3N)cc2)c1 | 70.7 µM |

These reach a lower IC50. Values come first.

| IC50 | SMILES |
| --- | --- |
| 30.2 µM | Nc1ccccc1NC(=O)c1ccc(C(=O)CNC(=O)c2ccccn2)cc1 |
| 11.1 µM | Nc1ccccc1NC(=O)c1ccc(C(=O)CNS(=O)(=O)c2cccnc2Cl)cc1 |
| 13 µM | Nc1ccccc1NC(=O)c1ccc(CNC(=O)OCc2cccnc2)cc1 [ENTINOSTAT] |
| 22.4 µM | Cc1ccc(S(=O)(=O)NCC(=O)c2ccc(C(=O)Nc3ccccc3N)cc2)cc1 |
| 3.8 µM | Nc1ccc(S(=O)(=O)NCC(=O)c2ccc(C(=O)Nc3ccccc3N)cc2)cc1 |

System: DU-145
Test: Ratio of MS-275 GI to compound GI for human DU145 cells
Assay type: functional

| SMILES | Ratio |
| --- | --- |
| Nc1ccc(S(=O)(=O)NCC(=O)c2ccc(C(=O)Nc3ccccc3N)cc2)cc1 | 50 |

System: HCT-116
Test: Anticancer activity against human HCT116 cells after 72 hrs by MTT assay
Assay type: functional

| SMILES | GI |
| --- | --- |
| Nc1ccccc1NC(=O)c1ccc(CNC(=O)OCc2cccnc2)cc1 [ENTINOSTAT] | 3.1 µM |
| Cc1ccc(S(=O)(=O)NCC(=O)c2ccc(C(=O)Nc3ccccc3N)cc2)cc1 | 18.7 µM |

System: not listed separately
Test: Ratio of MS-275 IC50 to compound IC50 to for HDAC

| Ratio IC50 | SMILES |
| --- | --- |
| 4 | Cc1ccc(S(=O)(=O)NCC(=O)c2ccc(C(=O)Nc3ccccc3N)cc2)cc1 |

System: A2780
Test: Anticancer activity against human A2780 cells after 72 hrs by MTT assay
Assay type: functional

| SMILES | GI |
| --- | --- |
| Nc1ccccc1NC(=O)c1ccc(CNC(=O)OCc2cccnc2)cc1 [ENTINOSTAT] | 5.7 µM |
| Cc1ccc(S(=O)(=O)NCC(=O)c2ccc(C(=O)Nc3ccccc3N)cc2)cc1 | >100 µM |
| Nc1ccc(S(=O)(=O)NCC(=O)c2ccc(C(=O)Nc3ccccc3N)cc2)cc1 | 5.7 µM |

Reference: ChEMBL document CHEMBL1806487, “Design, synthesis and docking studies on benzamide derivatives as histone deacetylase inhibitors” (Bioorg Med Chem Lett, 2011)
